Results from publication PMC12363518, “Azobenzene-Modified Temperature-Responsive Short Elastin-like Peptides for Photo-Controlled Phase Transition” (ACS Synthetic Biology, 2025).
Numbered stars: 1 amine (or outer) side, 2 acyl side, 3 side chain; on linkers, the order of the positions; unused ones are H or OH. Bridge positions count the residues as written; N and C are the ends. Peptide text beside a SMILES is read from it. I, II: the chains in the order shown. X1 = O=C(c1ccc(N=Nc2ccc(C(=O)[*:2])cc2)cc1)[*:1]

Assay: Thermal isomerization in the dark and photostationary state, followed by UV–vis spectroscopy
Format: physicochemical
Method: The thermal stability of the ELP–azobenzene conjugates was also investigated by using UV–vis spectroscopy. After measurements under “UV–vis–UV” conditions, each peptide solution was incubated in the dark, and spectral changes were monitored over time (Figure ). […] These findings indicate that the photoswitching behavior of this peptide was more readily controllable than that of the other analogues.
Additionally, the isomerization of Azb-2(K-F2) to a cis-enriched state was induced by irradiation with UV-A light (365 nm), which is a commercially available light source (Figure S4). […] On the other hand, when an LED light with a higher irradiance than that used for spectrum measurements was used as the light source, Azb-2(K-F2) reached a photostationary state in approximately 5 min (Figure S4B). Overall, based on the experimental results, Azb-2(K-F2) appears to be a promising easy-to-handle peptide with both temperature and photoresponsiveness.
The synthesized ELP–azobenzene conjugates were dissolved in PBS buffer (137 mM NaCl, 2.68 mM KCl, 10 mM Na2HPO4, and 2 mM KH2PO4, pH 7.4) to prepare 50 μM solutions. The time-dependent UV–vis spectra of each conjugate were recorded using a JASCO V-660 spectral photometer (JASCO Co., Tokyo) in a quartz cell (optical path length: 10 mm, volume: 400 μL). […] Initially, the absorption spectra of the dark-adapted solution of the ELP–azobenzene conjugate were measured to determine the irradiation wavelength corresponding to its π–π* band. Subsequently, the ELP–azobenzene conjugate solution was irradiated with light corresponding to the π–π* band for 60 min and the absorption spectra were recorded every 10 min. Next, the peptide solution was irradiated with visible light corresponding to the n–π* band for 60 min and the absorption spectra were recorded every 10 min. The peptide solution was then irradiated again with UV light for 60 min and the absorption spectra were recorded every 10 min. Finally, the peptide solution was incubated in the dark conditions and the absorption spectra were recorded every 1 h. […]

CC(C)[C@H](NC(=O)CNC(=O)[C@@H]1CCCN1C(=O)[C@H](Cc1ccccc1)NC(=O)CNC(=O)[C@@H](NC(=O)CNC(=O)[C@@H]1CCCN1C(=O)[C@H](Cc1ccccc1)NC(=O)[C@H](CCCCN)NC(=O)c1ccc(N=Nc2ccc(C(=O)N[C@@H](CCCCN)C(=O)N[C@@H](Cc3ccccc3)C(=O)N3CCC[C@H]3C(=O)NCC(=O)N[C@H](C(=O)NCC(=O)N[C@@H](Cc3ccccc3)C(=O)N3CCC[C@H]3C(=O)NCC(=O)N[C@H](C(=O)NCC(=O)O)C(C)C)C(C)C)cc2)cc1)C(C)C)C(=O)NCC(=O)O [Azb-2(K-F2)] (I: KFPGVGFPGVG-OH / II: KFPGVGFPGVG-OH; linker I:N-II:N via X1)
thermal stability of the cis-enriched state, 12 h (37 °C for 12 h, light-protected, 50 μM in PBS, UV–vis spectra): remained in a cis-enriched state
time to reach the photostationary state with LED light (UV-A 365 nm LED of higher irradiance than for the spectrum measurements): approximately 5 min
thermal stability of the cis-enriched state, 3 days (dark, after 3 days, UV–vis spectra (Figure S3)): retained its cis-isomer-enriched state
